These results are taken from patent US20250361230A1, “LATS Inhibitors and Uses Thereof” (The USA, as Represented by the Secretary, Dept. of Heath …, priority 2022, published 2025).

What all share (type): biochemical
One assay addresses T1, LATS1 (Homo sapiens, UniProt O95835).
T1 sequence (O95835 1-1130): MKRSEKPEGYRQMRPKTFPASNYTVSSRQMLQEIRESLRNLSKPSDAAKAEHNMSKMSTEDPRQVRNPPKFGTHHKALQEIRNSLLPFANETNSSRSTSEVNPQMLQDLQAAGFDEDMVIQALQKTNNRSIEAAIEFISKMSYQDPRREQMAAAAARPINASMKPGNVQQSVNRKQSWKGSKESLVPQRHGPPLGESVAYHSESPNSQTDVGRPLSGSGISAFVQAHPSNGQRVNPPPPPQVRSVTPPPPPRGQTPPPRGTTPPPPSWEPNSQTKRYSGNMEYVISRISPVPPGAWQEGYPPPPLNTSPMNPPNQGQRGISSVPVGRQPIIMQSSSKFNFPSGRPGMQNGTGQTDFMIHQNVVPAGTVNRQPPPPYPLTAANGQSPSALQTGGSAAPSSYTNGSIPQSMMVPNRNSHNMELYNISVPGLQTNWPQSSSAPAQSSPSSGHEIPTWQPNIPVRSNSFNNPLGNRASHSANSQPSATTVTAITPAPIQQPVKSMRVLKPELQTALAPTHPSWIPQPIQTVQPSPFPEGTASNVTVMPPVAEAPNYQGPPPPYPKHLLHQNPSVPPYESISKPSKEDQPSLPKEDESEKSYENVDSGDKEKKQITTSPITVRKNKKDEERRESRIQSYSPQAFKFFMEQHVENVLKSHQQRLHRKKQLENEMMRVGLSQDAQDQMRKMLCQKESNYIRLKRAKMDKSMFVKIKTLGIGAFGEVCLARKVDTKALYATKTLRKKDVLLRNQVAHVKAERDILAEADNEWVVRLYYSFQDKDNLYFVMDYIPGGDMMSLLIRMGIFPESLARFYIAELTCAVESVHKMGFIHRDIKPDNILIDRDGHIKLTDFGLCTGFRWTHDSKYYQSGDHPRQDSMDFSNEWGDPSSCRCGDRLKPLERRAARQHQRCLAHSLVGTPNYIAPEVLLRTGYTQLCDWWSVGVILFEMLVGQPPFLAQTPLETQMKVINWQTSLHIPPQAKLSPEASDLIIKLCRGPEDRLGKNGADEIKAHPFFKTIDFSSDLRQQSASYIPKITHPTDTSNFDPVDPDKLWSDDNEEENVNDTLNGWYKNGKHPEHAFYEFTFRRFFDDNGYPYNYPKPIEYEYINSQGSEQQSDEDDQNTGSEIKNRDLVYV
As to the kind of experiment: RBC HotSpot kinase assay (33P-ATP, P81 filter-binding), LATS1. In a few lines:
(§1)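 Compounds were run as single 10-point titrations to give IC50 values in nM. Each kinase was mixed with substrate and cofactors in 20 mM Hepes pH 7.5 reaction buffer with 1% DMSO, then exposed to compound for 20 min. 33P-ATP was added for a 2 h room-temperature reaction, with activity measured by P81 filter binding.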

The target of another assay is T2, LATS2 (Homo sapiens, UniProt Q9NRM7).
T2 sequence (Q9NRM7 1-1088): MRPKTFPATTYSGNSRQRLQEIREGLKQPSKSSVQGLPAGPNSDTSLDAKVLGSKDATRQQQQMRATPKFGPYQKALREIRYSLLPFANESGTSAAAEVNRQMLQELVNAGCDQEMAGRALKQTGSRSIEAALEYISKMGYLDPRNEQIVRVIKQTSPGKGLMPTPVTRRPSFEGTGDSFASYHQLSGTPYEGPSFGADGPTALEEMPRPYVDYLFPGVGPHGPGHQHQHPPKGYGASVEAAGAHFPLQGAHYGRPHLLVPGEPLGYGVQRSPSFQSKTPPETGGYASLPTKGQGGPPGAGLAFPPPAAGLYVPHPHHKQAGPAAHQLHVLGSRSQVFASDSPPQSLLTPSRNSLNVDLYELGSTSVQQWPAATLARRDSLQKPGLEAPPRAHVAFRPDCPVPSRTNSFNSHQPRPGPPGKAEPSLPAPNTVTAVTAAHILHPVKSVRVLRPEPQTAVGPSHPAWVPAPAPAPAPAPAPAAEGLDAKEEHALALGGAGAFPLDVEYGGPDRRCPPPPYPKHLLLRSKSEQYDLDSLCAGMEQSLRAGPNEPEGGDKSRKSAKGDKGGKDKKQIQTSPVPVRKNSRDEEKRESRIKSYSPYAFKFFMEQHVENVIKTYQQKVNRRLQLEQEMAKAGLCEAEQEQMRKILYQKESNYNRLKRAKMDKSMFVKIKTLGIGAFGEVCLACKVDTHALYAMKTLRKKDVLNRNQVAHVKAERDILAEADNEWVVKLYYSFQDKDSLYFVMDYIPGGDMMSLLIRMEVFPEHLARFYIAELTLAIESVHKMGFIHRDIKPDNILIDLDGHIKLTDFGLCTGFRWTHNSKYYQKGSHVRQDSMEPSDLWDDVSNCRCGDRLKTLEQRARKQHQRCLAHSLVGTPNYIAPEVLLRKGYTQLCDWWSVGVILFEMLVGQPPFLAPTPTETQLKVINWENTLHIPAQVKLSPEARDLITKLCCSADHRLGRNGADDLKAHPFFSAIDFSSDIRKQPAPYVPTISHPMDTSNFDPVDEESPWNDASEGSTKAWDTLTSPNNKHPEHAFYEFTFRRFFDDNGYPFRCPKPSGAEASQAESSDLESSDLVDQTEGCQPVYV
As to the kind of experiment: RBC HotSpot kinase assay (33P-ATP, P81 filter-binding), LATS2. An outline of the steps: as §1

A further assay deals with AKT (Homo sapiens, UniProt P31749). As to the kind of experiment: RBC HotSpot kinase assay (33P-ATP, P81 filter-binding), AKT. An outline of the steps: as §1
[1] abbreviates: Table 28, biochemical kinase assay, read-out: LATS1 IC50.
Where [2] appears, read: Table 28, biochemical kinase assay, read-out: LATS2 IC50.
The mark [3] stands for this setting: Table 28, biochemical kinase assay, read-out: AKT IC50.

Like-named read-outs stand apart in the source and are kept apart here.

Chain of AKT (P31749 whole entry): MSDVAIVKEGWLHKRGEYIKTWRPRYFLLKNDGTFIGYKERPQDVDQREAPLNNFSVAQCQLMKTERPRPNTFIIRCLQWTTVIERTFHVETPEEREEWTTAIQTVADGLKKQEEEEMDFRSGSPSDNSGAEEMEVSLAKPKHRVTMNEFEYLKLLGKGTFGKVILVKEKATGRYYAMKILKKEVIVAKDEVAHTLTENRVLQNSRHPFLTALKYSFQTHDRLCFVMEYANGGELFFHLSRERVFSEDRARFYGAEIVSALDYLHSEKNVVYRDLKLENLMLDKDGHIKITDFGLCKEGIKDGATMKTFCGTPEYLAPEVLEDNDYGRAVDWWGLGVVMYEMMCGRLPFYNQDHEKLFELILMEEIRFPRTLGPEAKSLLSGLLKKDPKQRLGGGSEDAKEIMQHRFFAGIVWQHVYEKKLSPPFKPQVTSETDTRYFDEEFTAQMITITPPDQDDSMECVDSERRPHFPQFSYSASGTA

The term IC50 denotes the point on the concentration scale where inhibition reaches its midpoint. With `OC1(c2ccc(-c3ccnc4[nH]cc(Br)c34)nc2)C[C@H]2CC[C@@H](C1)N2` (stereo partly drawn) [Compound 119, (1R,5S)-3-(6-(3-bromo-1H-pyrrolo[2,3-b]pyridin-4-yl)pyridin-3-yl)-8-azabicyclo[3.2.1]octan-3-ol], the IC50 was determined as 29.8 nM on LATS1, 184 nM at LATS2 and 2590 nM at AKT.

As for `CC1CC(O)(c2ccc(-c3ccnc4[nH]cc(Br)c34)cc2Cl)CC(C)N1` (stereo not drawn) [Compound 120, 4-(4-(3-bromo-1H-pyrrolo[2,3-b]pyridin-4-yl)-2-chlorophenyl)-2,6-dimethylpiperidin-4-ol], the IC50 at LATS1 (setting [1]) amounted to 58 nM; at LATS2 (setting [2]), 30 nM; on AKT (setting [3]), 103 nM.

For the compound `OC1(c2ccc(-c3ccnc4[nH]cc(Br)c34)cc2Cl)C2CNCC1C2` (stereo not drawn) [Compound 121, 6-(4-(3-bromo-1H-pyrrolo[2,3-b]pyridin-4-yl)-2-chlorophenyl)-3-azabicyclo[3.1.1]heptan-6-ol], the IC50 at LATS1 (setting [1]) turned out to be 10.2 nM; on LATS2 (setting [2]), 14.6 nM; on AKT (setting [3]), 307 nM.

With `OC1(c2ccc(-c3ccnc4[nH]cc(Br)c34)cc2Cl)C[C@H]2CC[C@@H](C1)N2` (stereo partly drawn) [Compound 122, (1R,5S)-3-(4-(3-bromo-1H-pyrrolo[2,3-b]pyridin-4-yl)-2-chlorophenyl)-8-azabicyclo[3.2.1]octan-3-ol], the IC50 was 5.3 nM on LATS1 (setting [1]), 8.9 nM on LATS2 (setting [2]) and 51.2 nM on AKT (setting [3]).

Regarding `OC1(c2ccc(-c3ccnc4[nH]cc(Br)c34)cc2Cl)CNC1` [Compound 123, 3-(4-(3-bromo-1H-pyrrolo[2,3-b]pyridin-4-yl)-2-chlorophenyl)azetidin-3-ol], the IC50 at LATS1 (setting [1]) stood at 12 nM; on LATS2 (setting [2]) it was 7 nM; on AKT (setting [3]), 158 nM.

In the case of `CN1CCC(O)(c2ccc(-c3ccnc4[nH]cc(Br)c34)cc2)CC1` [Compound 124, 4-(4-(3-bromo-1H-pyrrolo[2,3-b]pyridin-4-yl)phenyl)-1-methylpiperidin-4-ol], the IC50 at LATS1 (setting [1]) was 5.7 nM; at LATS2 (setting [2]), 3.7 nM; at AKT (setting [3]), 128 nM.

On to `CC1CN(C)CC(C)C1(O)c1ccc(-c2ccnc3[nH]cc(Br)c23)cc1Cl` (stereo not drawn) [Compound 125, 4-(4-(3-bromo-1H-pyrrolo[2,3-b]pyridin-4-yl)-2-chlorophenyl)-1,3,5-trimethylpiperidin-4-ol], for which the IC50 came to 14.1 nM at LATS1 (setting [1]), 7 nM at LATS2 (setting [2]) and 108 nM at AKT (setting [3]).

For the compound `OC1(c2ccc(-c3ccnc4[nH]cc(-c5cccnc5)c34)cc2)CCNCC1` [Compound 126, 4-(4-(3-(pyridin-3-yl)-1H-pyrrolo[2,3-b]pyridin-4-yl)phenyl)piperidin-4-ol], the IC50 amounted to 9.1 nM at LATS1 (setting [1]), 32 nM at LATS2 (setting [2]) and 245 nM at AKT (setting [3]).

With `Cc1cncc(-c2c[nH]c3nccc(-c4ccc(C5(O)CCNCC5)cc4)c23)c1` [Compound 127, 4-(4-(3-(5-methylpyridin-3-yl)-1H-pyrrolo[2,3-b]pyridin-4-yl)phenyl)piperidin-4-ol], the values for the IC50 at LATS1 (setting [1]), at LATS2 (setting [2]) and on AKT (setting [3]) were 19 nM, 40 nM and 4300 nM, respectively.

For `CN1CCC(O)(c2ccc(-c3ccnc4[nH]cc(-c5cccnc5)c34)cc2)CC1` [Compound 128, 1-methyl-4-(4-(3-(pyridin-3-yl)-1H-pyrrolo[2,3-b]pyridin-4-yl)phenyl)piperidin-4-ol], the IC50 at LATS1 (setting [1]) came out at 31 nM; on LATS2 (setting [2]), 36 nM; on AKT (setting [3]) it was 2050 nM.

As to `CC1CN(C)CC(C)C1(O)c1ccc(-c2ccnc3[nH]cc(F)c23)cc1-c1ccccc1` (stereo not drawn) [Compound 129, 4-(5-(3-fluoro-1H-pyrrolo[2,3-b]pyridin-4-yl)-[1,1′-biphenyl]-2-yl)-1,3,5-trimethylpiperidin-4-ol], the IC50 at LATS1 (setting [1]) was found to be 157 nM; at LATS2 (setting [2]), 190 nM; at AKT (setting [3]) it was 233 nM.

With `C[C@@H]1CNC[C@H](C)C1(O)c1cnc(-c2ccnc3[nH]cc(F)c23)cc1-c1ccccc1` (stereo partly drawn) [Compound 130, (3S,5R)-4-(6-(3-fluoro-1H-pyrrolo[2,3-b]pyridin-4-yl)-4-phenylpyridin-3-yl)-3,5-dimethylpiperidin-4-ol], the IC50 on LATS1 (setting [1]) was 146 nM; at LATS2 (setting [2]), 381 nM; at AKT (setting [3]), 2260 nM.

Turning to `CN1CCC(O)(c2ccc(-c3ccnc4[nH]cc(F)c34)cc2)CC1` [Compound 131, 4-(4-(3-fluoro-1H-pyrrolo[2,3-b]pyridin-4-yl)phenyl)-1-methylpiperidin-4-ol], the values for the IC50 on LATS1 (setting [1]), on LATS2 (setting [2]) and at AKT (setting [3]) were 28 nM, 25 nM and 1070 nM, respectively.

For `CN1CCC(O)(c2ccc(-c3ccnc4[nH]ccc34)cc2)CC1` [Compound 132, 4-(4-(1H-pyrrolo[2,3-b]pyridin-4-yl)phenyl)-1-methylpiperidin-4-ol], the IC50 at LATS1 (setting [1]) came to 2.9 nM; at LATS2 (setting [2]), 5.7 nM; at AKT (setting [3]), 490 nM.

As for `CN1[C@@H]2CC[C@H]1CC(O)(c1ccc(-c3ccnc4[nH]cc(F)c34)cc1)C2` (stereo partly drawn) [Compound 133, (1R,5S)-3-(4-(3-fluoro-1H-pyrrolo[2,3-b]pyridin-4-yl)phenyl)-8-methyl-8-azabicyclo[3.2.1]octan-3-ol], the figures for the IC50 on LATS1 (setting [1]), on LATS2 (setting [2]) and at AKT (setting [3]) were 20.1 nM, 19.1 nM and 390 nM, respectively.

For `CN1CC2CC(C1)C2(O)c1ccc(-c2ccnc3[nH]cc(F)c23)cc1Cl` (stereo not drawn) [Compound 134, 6-(2-chloro-4-(3-fluoro-1H-pyrrolo[2,3-b]pyridin-4-yl)phenyl)-3-methyl-3-azabicyclo[3.1.1]heptan-6-ol], the IC50 was 43.5 nM on LATS1 (setting [1]), 116 nM on LATS2 (setting [2]) and 788 nM on AKT (setting [3]).

Take `Cc1nc(-c2ccnc3[nH]ccc23)ccc1C1(O)CCN(C)CC1` [Compound 135, 1-methyl-4-(2-methyl-6-(1H-pyrrolo[2,3-b]pyridin-4-yl)pyridin-3-yl)piperidin-4-ol]: the figures for the IC50 on LATS1 (setting [1]), at LATS2 (setting [2]) and at AKT (setting [3]) were 736 nM, 682 nM and 7960 nM, respectively.

Consider `CN1C[C@H]2CC[C@@H](C1)C2(O)c1ccc(-c2ccnc3[nH]cc(F)c23)cc1Cl` (stereo partly drawn) [Compound 136, (1R,5S,8s)-8-(2-chloro-4-(3-fluoro-1H-pyrrolo[2,3-b]pyridin-4-yl)phenyl)-3-methyl-3-azabicyclo[3.2.1]octan-8-ol], for which the results for the IC50 on LATS1 (setting [1]), on LATS2 (setting [2]) and at AKT (setting [3]) were 69.8 nM, 118 nM and 1060 nM, respectively.
